Laboratory results reported in patent US4748122A, “2,5-diketo-D-gluconic acid reductase” (Shionogi & Co., Ltd., priority 1983, dated 1988).

Legend:
[1] = system: 25DKG-Rase derived from Strain K-106; assay: Substrate specificity by product formation, enzyme from K-106; format: biochemical, Corynebacterium sp. No. K-106 (ATCC 31,088)
Procedure: (§1) The purified enzyme solution (10 μl) obtained above (3) was mixed with 25 μmoles of a substrate (Ca-25DKG or 5KF) and 3.0 ml of 0.01M TB (pH 7) containing 15 μmoles of NADPH and the mixture was allowed to react at 30° C. for 60 minutes. After the reaction, the reaction mixture was analyzed by paper chromatography (developing solvent; phenol:formic acid:water=75:4:25, chromogenic agent; AHF solution, prepared by dissolving 0.93 g of anilin and 1.66 g of phthalic acid in 100 ml of water-saturated n-butanol and heating at 105° C. for 2 minutes) and by gas chromatography (column; SE-52, carrier gas: Helium, sample; trimethylsilylated derivative). […] In Table 1, the results of quantitative determination of the products by gas chromatography are shown.
(§2) The measurements of the physico-chemical properties were conducted in a manner as described in Example 1-(4) (5).

[2] = system: 25DKG-Rase derived from Strain T-13; assay: Enzymatic activity of 25DKG-Rase obtained from T-13 (Example 2); format: biochemical, Corynebacterium sp. No. T-13 (ATCC 31,089); settings: enzyme from T-13, coenzyme NADH
[3] = system: 25DKG-Rase derived from Strain T-13; assay: Substrate specificity by product formation, enzyme from T-13; format: biochemical, Corynebacterium sp. No. T-13 (ATCC 31,089)
Procedure: as §1, §2

25DKG-Rase [4] = target: T1, 25DKG-Rase (Corynebacterium sp., UniProt P15339); assay: Spectrophotometric enzymatic activity (decrease in absorption at 340 nm), purified enzyme solution of Example 1; format: biochemical, Corynebacterium sp. No. 20A-77 mutant (FERM-BP 108); settings: for Enzymatic activity: per 1 ml purified enzyme solution
T1 construct: The enzyme is an intracellular enzyme extracted from the cells of the 2KLG producing strain; made in house; host or cells: natural producer Corynebacterium sp; No. 20A-77 mutant FERM-BP 108, enzyme purified from sonicated cells; not recombinant
T1 sequence (P15339 2-277 limits assumed): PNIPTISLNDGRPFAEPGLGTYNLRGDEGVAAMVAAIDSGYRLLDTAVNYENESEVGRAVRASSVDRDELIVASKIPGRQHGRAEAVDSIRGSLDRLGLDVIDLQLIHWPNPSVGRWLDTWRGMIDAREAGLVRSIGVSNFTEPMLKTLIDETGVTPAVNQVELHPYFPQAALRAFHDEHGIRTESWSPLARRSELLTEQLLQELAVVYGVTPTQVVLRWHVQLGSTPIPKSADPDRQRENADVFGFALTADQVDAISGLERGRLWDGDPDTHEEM

[5] = system: 25DKG-Rase derived from Strain K-106; assay: Enzymatic activity of 25DKG-Rase obtained from K-106 (Example 2); format: biochemical, Corynebacterium sp. No. K-106 (ATCC 31,088); settings: enzyme from K-106, coenzyme NADH
[6] = system: 25DKG-Rase derived from Strain K-106; assay: as above; format: biochemical, Corynebacterium sp. No. K-106 (ATCC 31,088); settings: for Enzymatic activity (relative activity): 100 = activity at pH 7, 30° C.
Procedure: (§3) Two point nine (2.9) ml of 0.1M TB (pH 7) containing 0.3 μmoles of NADPH was placed in a quartz cubette having 1 cm optical length difference and added 1-5 μl of the enzyme solution obtained above (3) thereto. Then, to the mixture, each 0.1 ml of the various substrate solutions (0.1M) were added while being kept at 30° C. Reactivities of the enzyme on the respective substrates were determined, by means of successive measurement of the decrease in absorption at 340 nm, on the basis of the decrease for 1 minute.
as §2
(§4) Enzymatic activities of 25DKG-Rases obtained from K-106 and T-13 were measured at varying pH from 4 to 9 (substrate: Ca-25DKG, reaction temperature: 30° C.).
(§5) The enzymatic activities of 25DKG-Rases obtained from K-106 and T-13 were measured at varying temperature (pH 7.0, substrate: Ca-25DKG).

[7] = system: 25DKG-Rase derived from Strain T-13; assay: Enzymatic activity of 25DKG-Rase obtained from T-13 (Example 2); format: biochemical, Corynebacterium sp. No. T-13 (ATCC 31,089); settings: for Enzymatic activity (relative activity): 100 = activity at pH 7, 30° C.
Procedure: as §3, §2, §4, §5

25DKG-Rase [8] = target: T1, 25DKG-Rase; format: biochemical, Corynebacterium sp. No. 20A-77 mutant (FERM-BP 108); settings: 10 μl enzyme solution, 25 μmoles substrate, 15 μmoles NADPH, 30° C., 60 minutes; gas chromatography

O=C(O)C(=O)[C@@H](O)[C@H](O)C(=O)CO [Ca-25DKG]
product formed (substrate specificity) [1]: produced only Ca-2KLG
enzymatic activity using NADH as the coenzyme [2]: ≤ 0.1 unit/ml
product formed (substrate specificity) [3]: produced only Ca-2KLG
Enzymatic activity (25DKG-Rase [4]; 15 °C., pH 7): 14 unit/ml
Enzymatic activity (25DKG-Rase [4]; 25 °C., pH 7): 29 unit/ml
Enzymatic activity (25DKG-Rase [4]; 27.5 °C., pH 7): 44 unit/ml
Enzymatic activity (25DKG-Rase [4]; 30 °C., pH 7): 54 unit/ml
Enzymatic activity (25DKG-Rase [4]; 32.5 °C., pH 7): 59 unit/ml
Enzymatic activity (25DKG-Rase [4]; 35 °C., pH 7): 64 unit/ml
Enzymatic activity (25DKG-Rase [4]; 40 °C., pH 7): 67 unit/ml
Enzymatic activity (25DKG-Rase [4]; 45 °C., pH 7): 44 unit/ml
Enzymatic activity (25DKG-Rase [4]; 50 °C., pH 7): 10 unit/ml
Activity of the purified enzyme solution (1 ml) (25DKG-Rase [4]; NADPH, 0.1M TB pH 7, 30° C.): 54 units
Enzymatic activity (25DKG-Rase [4]; pH 4.0, 3,3-dimethylglutaric acid buffer): 1 unit/ml
Enzymatic activity (25DKG-Rase [4]; pH 5.0, 3,3-dimethylglutaric acid buffer): 22 unit/ml
Enzymatic activity (25DKG-Rase [4]; pH 6.0, Good (PIPES) buffer): 59 unit/ml
Enzymatic activity (25DKG-Rase [4]; pH 6.5, Good (PIPES) buffer): 57 unit/ml
Enzymatic activity (25DKG-Rase [4]; pH 7.0, Good (PIPES) buffer): 53 unit/ml
Enzymatic activity (25DKG-Rase [4]; pH 7.0, Tris buffer): 54 unit/ml
Enzymatic activity (25DKG-Rase [4]; pH 7.5, Tris buffer): 44 unit/ml
Enzymatic activity (25DKG-Rase [4]; pH 8.0, Tris buffer): 32 unit/ml
Enzymatic activity (25DKG-Rase [4]; pH 8.5, Tris buffer): 11 unit/ml
Enzymatic activity (25DKG-Rase [4]; pH 9.0, Tris buffer): 7 unit/ml
enzymatic activity using NADH as the coenzyme [5]: ≤ 0.1 unit/ml
Enzymatic activity (relative activity) ([6]; K-106, 22 °C., pH 7.0): 46
Enzymatic activity (relative activity) ([6]; K-106, 25 °C., pH 7.0): 69
Enzymatic activity (relative activity) ([6]; K-106, 28 °C., pH 7.0): 86
Enzymatic activity (relative activity) ([6]; K-106, 30 °C., pH 7.0): 100
Enzymatic activity (relative activity) ([6]; K-106, 35 °C., pH 7.0): 115
Enzymatic activity (relative activity) ([6]; K-106, 40 °C., pH 7.0): 119
Enzymatic activity (relative activity) ([6]; K-106, 45 °C., pH 7.0): 93
Enzymatic activity (relative activity) ([6]; K-106, 50 °C., pH 7.0): 44
Enzymatic activity (relative activity) ([6]; K-106, pH 4.0, 30° C.): 1
Enzymatic activity (relative activity) ([6]; K-106, pH 5.0, 30° C.): 48
Enzymatic activity (relative activity) ([6]; K-106, pH 6.0, 30° C.): 103
Enzymatic activity (relative activity) ([6]; K-106, pH 7.0, 30° C.): 100
Enzymatic activity (relative activity) ([6]; K-106, pH 8.0, 30° C.): 70
Enzymatic activity (relative activity) ([6]; K-106, pH 9.0, 30° C.): 6
Enzymatic activity per protein ([6]; enzyme from Strain K-106, NADPH): 95 units/mg protein
Enzymatic activity ([6]; enzyme from Strain K-106, purified enzyme solution, NADPH): 23.8 units/ml
Enzymatic activity (relative activity) ([7]; T-13, 22 °C., pH 7.0): 64
Enzymatic activity (relative activity) ([7]; T-13, 25 °C., pH 7.0): 79
Enzymatic activity (relative activity) ([7]; T-13, 28 °C., pH 7.0): 92
Enzymatic activity (relative activity) ([7]; T-13, 30 °C., pH 7.0): 100
Enzymatic activity (relative activity) ([7]; T-13, 35 °C., pH 7.0): 115
Enzymatic activity (relative activity) ([7]; T-13, 40 °C., pH 7.0): 133
Enzymatic activity (relative activity) ([7]; T-13, 45 °C., pH 7.0): 128
Enzymatic activity (relative activity) ([7]; T-13, 50 °C., pH 7.0): 92
Enzymatic activity (relative activity) ([7]; T-13, pH 4.0, 30° C.): 1
Enzymatic activity (relative activity) ([7]; T-13, pH 5.0, 30° C.): 65
Enzymatic activity (relative activity) ([7]; T-13, pH 6.0, 30° C.): 104
Enzymatic activity (relative activity) ([7]; T-13, pH 7.0, 30° C.): 100
Enzymatic activity (relative activity) ([7]; T-13, pH 8.0, 30° C.): 64
Enzymatic activity (relative activity) ([7]; T-13, pH 9.0, 30° C.): 19
Enzymatic activity per protein ([7]; enzyme from Strain T-13, NADPH): 89 units/mg protein
Enzymatic activity ([7]; enzyme from Strain T-13, purified enzyme solution, NADPH): 15.1 units/ml
Concentration of the product (25DKG-Rase [8]): 845 µg/mL
